Experimental data as given in PubChem BioAssay (NCI).
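In this assay, cells in 96-well plates receive the compound at five concentrations for 48 hours. Endpoints are linearly interpolated between the surrounding concentrations. GI50 marks 50% less growth. The concentration for full growth arrest is given as TGI.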

Assays:
Experiment in all cases: DTP human tumour cell line panel, 48 h
786-0 renal = test system: 786-0 renal
A498 renal = test system: A498 renal
A549 NSCLC = test system: A549 NSCLC
ACHN renal = test system: ACHN renal
BT-549 breast = test system: BT-549 breast
CAKI-1 renal = test system: CAKI-1 renal
CCRF-CEM leukemia = test system: CCRF-CEM leukemia
COLO 205 colon = test system: COLO 205 colon
DU-145 prostate = test system: DU-145 prostate
EKVX NSCLC = test system: EKVX NSCLC
HCC-2998 colon = test system: HCC-2998 colon
HCT-116 colon = test system: HCT-116 colon
HCT-15 colon = test system: HCT-15 colon
HL-60(TB) leukemia = test system: HL-60(TB) leukemia
HOP-62 NSCLC = test system: HOP-62 NSCLC
HOP-92 NSCLC = test system: HOP-92 NSCLC
HS 578T breast = test system: HS 578T breast
HT29 colon = test system: HT29 colon
IGROV1 ovarian = test system: IGROV1 ovarian
K-562 leukemia = test system: K-562 leukemia
KM12 colon = test system: KM12 colon
LOX IMVI melanoma = test system: LOX IMVI melanoma
M14 melanoma = test system: M14 melanoma
MALME-3M melanoma = test system: MALME-3M melanoma
MCF7 breast = test system: MCF7 breast
MDA-MB-231 breast = test system: MDA-MB-231 breast
MDA-MB-435 = test system: MDA-MB-435
MOLT-4 leukemia = test system: MOLT-4 leukemia
NCI-H226 lung = test system: NCI-H226 lung
NCI-H23 lung = test system: NCI-H23 lung
NCI-H460 lung = test system: NCI-H460 lung
NCI-H522 lung = test system: NCI-H522 lung
NCI/ADR-RES ovarian = test system: NCI/ADR-RES ovarian
OVCAR-3 ovarian = test system: OVCAR-3 ovarian
OVCAR-4 ovarian = test system: OVCAR-4 ovarian
OVCAR-5 ovarian = test system: OVCAR-5 ovarian
OVCAR-8 ovarian = test system: OVCAR-8 ovarian
PC-3 prostate = test system: PC-3 prostate
RPMI-8226 leukemia = test system: RPMI-8226 leukemia
RXF 393 renal = test system: RXF 393 renal
SF-268 CNS = test system: SF-268 CNS
SF-295 CNS = test system: SF-295 CNS
SF-539 CNS = test system: SF-539 CNS
SK-MEL-2 melanoma = test system: SK-MEL-2 melanoma
SK-MEL-28 melanoma = test system: SK-MEL-28 melanoma
SK-MEL-5 melanoma = test system: SK-MEL-5 melanoma
SK-OV-3 ovarian = test system: SK-OV-3 ovarian
SN12C renal = test system: SN12C renal
SNB-19 CNS = test system: SNB-19 CNS
SNB-75 CNS = test system: SNB-75 CNS
SR leukemia = test system: SR leukemia
SW-620 colon = test system: SW-620 colon
T-47D breast = test system: T-47D breast
TK-10 renal = test system: TK-10 renal
U251 CNS = test system: U251 CNS
UACC-257 melanoma = test system: UACC-257 melanoma
UACC-62 melanoma = test system: UACC-62 melanoma
UO-31 renal = test system: UO-31 renal

SMILES: CN1CCN(c2ccc(NC(=O)Nc3ccc4c(ccn4-c4cccc(C(N)=O)n4)c3)cc2C(F)(F)F)CC1
- GI50 (786-0 renal): 0.834 µM
- TGI (786-0 renal): 2 µM
- GI50 (A498 renal): 7.74 µM
- TGI (A498 renal): 14.8 µM
- GI50 (A549 NSCLC): 5.2 µM
- TGI (A549 NSCLC): 13.3 µM
- GI50 (ACHN renal): 6.95 µM
- TGI (ACHN renal): 14.1 µM
- GI50 (BT-549 breast): 5.21 µM
- TGI (BT-549 breast): 12.5 µM
- GI50 (CAKI-1 renal): 6.47 µM
- TGI (CAKI-1 renal): 13.5 µM
- GI50 (CCRF-CEM leukemia): 1.4 µM
- TGI (CCRF-CEM leukemia): 3.18 µM
- GI50 (COLO 205 colon): 5.91 µM
- TGI (COLO 205 colon): 15.4 µM
- GI50 (DU-145 prostate): 5.97 µM
- TGI (DU-145 prostate): 14.5 µM
- GI50 (EKVX NSCLC): 6.9 µM
- TGI (EKVX NSCLC): 16.3 µM
- GI50 (HCC-2998 colon): 6.28 µM
- TGI (HCC-2998 colon): 14 µM
- GI50 (HCT-116 colon): 0.858 µM
- TGI (HCT-116 colon): 1.84 µM
- GI50 (HCT-15 colon): 1.66 µM
- TGI (HCT-15 colon): 7.33 µM
- GI50 (HL-60(TB) leukemia): 5.59 µM
- TGI (HL-60(TB) leukemia): 13.5 µM
- GI50 (HOP-62 NSCLC): 5.89 µM
- TGI (HOP-62 NSCLC): 12.9 µM
- GI50 (HOP-92 NSCLC): 6.91 µM
- TGI (HOP-92 NSCLC): 15.8 µM
- GI50 (HS 578T breast): 2.68 µM
- TGI (HS 578T breast): 12.5 µM
- GI50 (HT29 colon): 1.29 µM
- TGI (HT29 colon): 5.5 µM
- GI50 (IGROV1 ovarian): 9.04 µM
- TGI (IGROV1 ovarian): 20.4 µM
- GI50 (K-562 leukemia): 0.938 µM
- TGI (K-562 leukemia): 2.17 µM
- GI50 (KM12 colon): 2.25 µM
- TGI (KM12 colon): 9.23 µM
- GI50 (LOX IMVI melanoma): 0.969 µM
- TGI (LOX IMVI melanoma): 2.03 µM
- GI50 (M14 melanoma): 0.991 µM
- TGI (M14 melanoma): 2.21 µM
- GI50 (MALME-3M melanoma): 1.37 µM
- TGI (MALME-3M melanoma): 3.79 µM
- GI50 (MCF7 breast): 0.878 µM
- TGI (MCF7 breast): 2.02 µM
- GI50 (MDA-MB-231 breast): 6.53 µM
- TGI (MDA-MB-231 breast): 19.1 µM
- GI50 (MDA-MB-435): 1.13 µM
- TGI (MDA-MB-435): 2.82 µM
- GI50 (MOLT-4 leukemia): 1.02 µM
- TGI (MOLT-4 leukemia): 2.24 µM
- GI50 (NCI-H226 lung): 8.61 µM
- TGI (NCI-H226 lung): 20.4 µM
- GI50 (NCI-H23 lung): 7.61 µM
- TGI (NCI-H23 lung): 19.3 µM
- GI50 (NCI-H460 lung): 1.74 µM
- TGI (NCI-H460 lung): 5.88 µM
- GI50 (NCI-H522 lung): 10.1 µM
- TGI (NCI-H522 lung): 20.8 µM
- GI50 (NCI/ADR-RES ovarian): 9.47 µM
- TGI (NCI/ADR-RES ovarian): 24.2 µM
- GI50 (OVCAR-3 ovarian): 8.35 µM
- TGI (OVCAR-3 ovarian): 16.4 µM
- GI50 (OVCAR-4 ovarian): 8.09 µM
- TGI (OVCAR-4 ovarian): 21.9 µM
- GI50 (OVCAR-5 ovarian): 7.54 µM
- TGI (OVCAR-5 ovarian): 17 µM
- GI50 (OVCAR-8 ovarian): 10.1 µM
- TGI (OVCAR-8 ovarian): 25.1 µM
- GI50 (PC-3 prostate): 3.34 µM
- TGI (PC-3 prostate): 11 µM
- GI50 (RPMI-8226 leukemia): 1.17 µM
- TGI (RPMI-8226 leukemia): 2.65 µM
- GI50 (RXF 393 renal): 1.06 µM
- TGI (RXF 393 renal): 2.5 µM
- GI50 (SF-268 CNS): 6.71 µM
- TGI (SF-268 CNS): 18 µM
- GI50 (SF-295 CNS): 0.969 µM
- TGI (SF-295 CNS): 2.15 µM
- GI50 (SF-539 CNS): 1.92 µM
- TGI (SF-539 CNS): 8.07 µM
- GI50 (SK-MEL-2 melanoma): 5.17 µM
- TGI (SK-MEL-2 melanoma): 12.4 µM
- GI50 (SK-MEL-28 melanoma): 0.939 µM
- TGI (SK-MEL-28 melanoma): 1.91 µM
- GI50 (SK-MEL-5 melanoma): 0.964 µM
- TGI (SK-MEL-5 melanoma): 2.08 µM
- GI50 (SK-OV-3 ovarian): 7.14 µM
- TGI (SK-OV-3 ovarian): 13.8 µM
- GI50 (SN12C renal): 8.1 µM
- TGI (SN12C renal): 18.5 µM
- GI50 (SNB-19 CNS): 5.99 µM
- TGI (SNB-19 CNS): 16.4 µM
- GI50 (SNB-75 CNS): 5.06 µM
- TGI (SNB-75 CNS): 11.9 µM
- GI50 (SR leukemia): 0.929 µM
- TGI (SR leukemia): 2.48 µM
- GI50 (SW-620 colon): 1.27 µM
- TGI (SW-620 colon): 2.91 µM
- GI50 (T-47D breast): 9.33 µM
- TGI (T-47D breast): 22.8 µM
- GI50 (TK-10 renal): 8.51 µM
- TGI (TK-10 renal): 16.3 µM
- GI50 (U251 CNS): 1.33 µM
- TGI (U251 CNS): 6.64 µM
- GI50 (UACC-257 melanoma): 1.11 µM
- TGI (UACC-257 melanoma): 2.66 µM
- GI50 (UACC-62 melanoma): 5.65 µM
- TGI (UACC-62 melanoma): 13.8 µM
- GI50 (UO-31 renal): 7.38 µM
- TGI (UO-31 renal): 15.6 µM
